Measurements as given in patent US20210322508A1, “PEPTIDES AND COMPOSITIONS FOR TARGETED TREATMENT AND IMAGING” (SIGNABLOK, INC., priority 2018, published 2021).
Residues, ends and D or L forms follow the SMILES beside them.

Legend:
J774 macrophages = assay: in vitro macrophage uptake (endocytosis) of rho B-labeled peptides and lipopeptide complexes; type: cell-based, murine; details: for mechanism of macrophage endocytosis (scavenger receptors): J774, 4 h or 22 h, G-HV21 and G-KV21 in the presence of HDL; for in vitro macrophage uptake, presence vs. absence of HDL: rho B-labeled peptides
Procedure: In Vitro Macrophage Uptake of GF9HDL and GA/E31HDL A quantitative in vitro macrophage assay of endo-cytosis of rho B-labeled HDL-mimicking lipopeptide complexes by J774 macrophage was performed as described. (18-20) Briefly, BALB/c murine macrophage J774A.1 cells (ATCC) were cultured at 37° C. with 5% CO2 in Dulbecco's modified Eagle's medium (Cellgro Mediatech, Manassas, Va.) with 2 mM glutamine, 100 U/mL penicillin, 0.1 mg/mL streptomycin, and 10% heat-inactivated fetal bovine serum (Cellgro Mediatech) and grown to approximately 90% confluency in 12-well tissue culture plates (Corning Costar, Corning, N.Y.).
Cells were washed twice using phosphate-buffered saline and lysed using Passive Lysis Buffer (Promega, Madison, Wis.). Rho B fluorescence was measured in the lysates with 544-nm excitation and 590-nm emission filters, using a Fluoroscan Ascent CF fluorescence microplate reader (Thermo Labsystems, Vantaa, Finland). Protein concentrations in the lysates were measured using Bradford reagent (Sigma-Aldrich) and an MRX microplate reader (Dynex Technologies, Chantilly, Va.) according to the manufacturer's recommended protocol.

[1] = test system: TNF-alpha, IL-1beta and IL-6; assay: LPS-induced endotoxemia: in vivo serum cytokine release; design: species or system mouse; details: free peptides, at this dose; serum 90 min after 30 mg/kg LPS
Procedure: One hour later, mice received i.p. injection of 30 mg/kg LPS from E. coli 055:B5 (Sigma). In some experiments, all formulations were i.p. administered 1 and 3 h after LPS injection. The viability of mice was examined hourly. Body weights were measured daily. In all of the animal experiments, blood samples were collected via a sub-mandibular (cheek) bleed at 90 min after administration of LPS. Statistical analysis of survival curves was performed by the Kaplan-Meier test. Comparisons were made using two-tailed Student's t test. The production of cytokines in serum was measured by a standard sandwich cytokine ELISA procedure using TNF-alpha, IL-1beta and IL-6 ELISA kits (Pierce Biotechnology, Thermo Scientific, Rockford, Ill.) according to the instructions of the manufacturer. Statistical significances in cytokine analysis ELISA data were determined by two-tailed Student's t test.
Naïve, female C57BL/6 mice at 8 to 10 weeks of age (18 to 21 g) from the Jackson Laboratory were randomly grouped (10 mice per group) and i.p. injected with vehicle or the indicated doses of dexamethasone (DEX), GF9, G-TE21, G-HV21 and G-KV21. One hour later, mice received i.p. injection of 30 mg/kg LPS from E. coli 055:B5 (Sigma). […] Body weights were measured daily. […] Statistical significances in cytokine analysis ELISA data were determined by two-tailed Student's t test.

[2] = test system: C57BL/6J neonatal mice with oxygen-induced retinopathy; assay: Oxygen-induced retinopathy (OIR): pathological retinal neovascularization; type: in vivo
Procedure: Litters of C57BL/6J (Jackson Laboratory, Bar Harbor, Me.) neonatal mice and nursing dams were exposed to a hyperoxia environment (75% oxygen) from postnatal day 7 (P7) to P12 and returned to normoxia until P17. The hyperoxia exposure causes degeneration of the immature retinal vessels. […] Beginning on P7, mice were treated until day P17 by daily i.p. injections of GF9, GF9-SLP, TREM-1/TRIOPEP-sSLP or vehicle (phosphate-buffered saline, pH 7.4; PBS). […] In another subset of experiments, rho B-labeled Gd-containing sSLP were used to confirm the ability of these targeted SLP to cross the BRB in other species (rats and rabbits). In another subset of experiments, neonatal mice and nursing dams were not subjected to a hyperoxia environment and reared in room air (RA). […]
Treatment effects on vaso-obliteration and pathological angiogenesis were assessed by morphometric analysis of the avascular and neovascularization areas in retinal flat mounts after labeling with isolectin B4 as described in Patel, et al. Am J Pathol 2014, 184:3040-3051. […] After washing 3 times with PBS, the images were captured with a 20× lens using a Zeiss Axioplan2 fluorescence microscope (Carl Zeiss Meditec, Inc., Dublin, Calif.). Intravitreal neovascular formation and avascular area were measured as described in Connor, et al. Nat Protoc 2009, 4:1565-1573. […]

SMILES | mechanism of macrophage endocytosis (scavenger receptors) (J774 macrophages) | in vitro macrophage uptake, presence vs. absence of HDL (J774 macrophages) | LPS-stimulated cytokine production in vivo [1] | toxicity / tolerability in mouse litters ([2]; mouse, in vivo) | reduction of pathological RNV ([2]; free peptides, daily i.p. P7-P17 at indicated doses)
CC(C)C[C@H](NC(=O)[C@H](Cc1ccccc1)NC(=O)CN)C(=O)N[C@@H](CO)C(=O)N[C@@H](CCCCN)C(=O)N[C@@H](CO)C(=O)N[C@@H](CC(C)C)C(=O)N[C@H](C(=O)N[C@@H](Cc1ccccc1)C(=O)NCC(=O)N[C@@H](CCC(=O)O)C(=O)N[C@@H](CCC(=O)O)C(=O)N[C@@H](CC[S+](C)[O-])C(=O)N[C@@H](CCCNC(=N)N)C(=O)N[C@@H](CC(=O)O)C(=O)N[C@@H](CCCNC(=N)N)C(=O)N[C@@H](C)C(=O)N[C@@H](CCCNC(=N)N)C(=O)N[C@@H](C)C(=O)N[C@@H](Cc1c[nH]cn1)C(=O)N[C@H](C(=O)O)C(C)C)C(C)C (some centres unmarked) [G-HV21] (HELM PEPTIDE1{G.F.L.S.K.S.L.V.F.G.E.E.[CS(=O)CC[C@H](N[*:1])C(=O)[*:2]].R.D.R.A.R.A.H.V}$$$$V2.0) | SR-mediated in a time-dependent manner and is largely driven by SR-A | significantly increases | inhibit LPS-stimulated cytokine production in vivo | – | –
CC(C)C[C@H](NC(=O)[C@H](Cc1ccccc1)NC(=O)CN)C(=O)N[C@@H](CO)C(=O)N[C@@H](CCCCN)C(=O)N[C@@H](CO)C(=O)N[C@@H](CC(C)C)C(=O)N[C@H](C(=O)N[C@@H](Cc1ccccc1)C(=O)O)C(C)C [GF9] (H-GFLSKSLVF-OH) | – | – | – | non-toxic and well-tolerated in mouse litters | –
CC(C)C[C@H](NC(=O)[C@H](Cc1ccccc1)NC(=O)CN)C(=O)N[C@@H](CO)C(=O)N[C@@H](CCCCN)C(=O)N[C@@H](CO)C(=O)N[C@@H](CC(C)C)C(=O)N[C@H](C(=O)N[C@@H](Cc1ccccc1)C(=O)N[C@@H](Cc1c[nH]c2ccccc12)C(=O)N[C@@H](CCC(N)=O)C(=O)N[C@@H](CCC(=O)O)C(=O)N[C@@H](CCC(=O)O)C(=O)N[C@@H](CC[S+](C)[O-])C(=O)N[C@@H](CCC(=O)O)C(=O)N[C@@H](CC(C)C)C(=O)N[C@@H](Cc1ccc(O)cc1)C(=O)N[C@@H](CCCNC(=N)N)C(=O)N[C@@H](CCC(N)=O)C(=O)N[C@@H](CCCCN)C(=O)N[C@H](C(=O)O)C(C)C)C(C)C (some centres unmarked) [G-KV21] (HELM PEPTIDE1{G.F.L.S.K.S.L.V.F.W.Q.E.E.[CS(=O)CC[C@H](N[*:1])C(=O)[*:2]].E.L.Y.R.Q.K.V}$$$$V2.0) | SR-mediated in a time-dependent manner and is largely driven by SR-A | significantly increases | inhibit LPS-stimulated cytokine production in vivo | – | up to 95%
